Legend:
QPCTL [1] = target: T1, QPCTL (Homo sapiens (Human), UniProt Q9NXS2); assay: QPCTL Enzymatic Activity Assay (coupled-enzyme fluorescent assay, H-Gln-AMC substrate); format: biochemical; conditions: recombinant truncated human QPCTL 10-12 nM, 10 μM H-Gln-AMC; read-out: QPCTL Inhibition IC50
Target sequence in this assay (Q9NXS2 53-382): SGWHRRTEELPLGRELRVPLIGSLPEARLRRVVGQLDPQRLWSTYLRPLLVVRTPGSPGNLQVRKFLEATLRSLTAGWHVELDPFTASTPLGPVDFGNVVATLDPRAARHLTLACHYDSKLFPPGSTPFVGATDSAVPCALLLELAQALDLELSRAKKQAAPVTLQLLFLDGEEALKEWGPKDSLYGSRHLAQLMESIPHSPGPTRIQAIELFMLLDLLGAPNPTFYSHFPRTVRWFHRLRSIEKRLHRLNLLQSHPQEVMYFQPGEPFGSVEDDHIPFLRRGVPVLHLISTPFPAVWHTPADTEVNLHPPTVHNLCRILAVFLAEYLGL

QPCT (rhQPCT) = QPCT (rhQPCT) (Homo sapiens (Human), UniProt Q16769); assay: QPCT Enzymatic Activity Assay (coupled-enzyme fluorescent assay, H-Gln-AMC substrate); format: biochemical; conditions: rhQPCT 10-12 nM, 10 μM H-Gln-AMC; read-out: QPCT Inhibition IC50
Method in brief: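 Coupled assay: recombinant human QPCT converts H-Gln-AMC (10 μM final) to pyroglutamyl-AMC, 60 min at 37 °C, stopped by boiling; PGPEP-1 then releases AMC.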

QPCTL [2] = target: T1, QPCTL; assay: Inhibition of Cellular QPCTL Activity - FACS flow cytometry, CC2C6 anti-CD47 staining of Ramos cells; format: cell-based; conditions: Ramos human Burkitts Lymphoma cells, 72-96 hours, % CC2C6-positive cells
Protocol: Inhibition of Cellular QPCTL Activity—Fluorescence-Activated Cell Sorting (FACS) Flow Cytometry
The cells were incubated for 72-96 hours at 37° C. and 5% CO2. At the end of incubation period, cells were transferred to tubes and spun down at 1200 rpm for 5 minutes. […] After antibody staining, the cells were washed with FACS buffer then stained with SYTOX™ Blue dead cell stain at a dilution of 1:1000. Cells were analyzed on a BD FACS Melody and a positive staining gate on live cells was set using the 0.1% DMSO controls. […] Flow cytometry data were analyzed by FlowJo software and concentration-response-curves and IC50 values were generated using Collaborative Drug Discovery software.
Target sequence in this assay (Q9NXS2 whole entry, the tested form may be a part): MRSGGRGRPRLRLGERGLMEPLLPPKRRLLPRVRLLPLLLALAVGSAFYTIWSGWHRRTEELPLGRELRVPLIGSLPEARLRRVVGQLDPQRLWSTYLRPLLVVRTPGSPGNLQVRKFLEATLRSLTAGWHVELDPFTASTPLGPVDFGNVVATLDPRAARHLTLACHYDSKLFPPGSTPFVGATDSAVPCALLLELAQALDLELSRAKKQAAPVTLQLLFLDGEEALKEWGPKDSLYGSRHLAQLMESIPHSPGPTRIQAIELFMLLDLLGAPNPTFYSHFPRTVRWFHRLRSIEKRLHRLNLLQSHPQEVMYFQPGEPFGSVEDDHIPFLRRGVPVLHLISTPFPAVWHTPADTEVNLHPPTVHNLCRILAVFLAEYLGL

QPCTL [3] = target: T1, QPCTL; assay: Inhibition of Cellular QPCTL Activity - Imaging Assay, CC2C6 anti-CD47 staining of DLD-1 cells; format: cell-based; conditions: 72 hours, CC2C6 anti-CD47 high-content imaging
Protocol: Inhibition of Cellular QPCTL Activity—Imaging Assay
The cells were incubated for 72 hours at 37° C. and 5% CO2. […] After primary antibody staining, the cells were fixed with 4% paraformaldehyde in the incubation buffer for 15 minutes at room temperature. […] Cells were analyzed on a ImageXpress Pico Automated Cell Imaging System (Molecular Devices) using 10× objective (3×3 fields).
Target sequence in this assay (Q9NXS2 whole entry, the tested form may be a part): as above

Chain of QPCT (rhQPCT) (Q16769 29-361): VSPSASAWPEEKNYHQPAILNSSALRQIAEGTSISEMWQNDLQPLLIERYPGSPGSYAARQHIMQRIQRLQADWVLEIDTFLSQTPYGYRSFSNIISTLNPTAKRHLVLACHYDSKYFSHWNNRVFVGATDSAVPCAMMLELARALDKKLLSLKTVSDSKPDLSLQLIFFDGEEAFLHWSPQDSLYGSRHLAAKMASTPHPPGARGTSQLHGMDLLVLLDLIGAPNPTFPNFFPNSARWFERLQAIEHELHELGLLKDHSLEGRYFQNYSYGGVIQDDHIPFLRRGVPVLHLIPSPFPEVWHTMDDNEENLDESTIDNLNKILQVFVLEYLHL

| Compound | IC50 (QPCTL [1]) [nM] | IC50 (QPCT (rhQPCT)) [nM] | IC50 (QPCTL [2]) [nM] | IC50 (QPCTL [3]) [nM] |
| --- | --- | --- | --- | --- |
| Cn1cnnc1C1CCN(c2c(C#N)ccc(F)c2-c2ccc(F)nc2)CC1 [Example 38, 4-fluoro-3-(6-fluoropyridin-3-yl)-2-[4-(4-methyl-4H-1,2,4-triazol-3-yl)piperidin-1-yl]benzonitrile] | < 100 | < 100 | < 100 | < 100 |
| COc1ccncc1-c1ccc(OC)c(C#N)c1N1CCC(c2nncn2C)CC1 [Example 25, 6-methoxy-3-(4-methoxypyridin-3-yl)-2-[4-(4-methyl-4H-1,2,4-triazol-3-yl)piperidin-1-yl]benzonitrile] | < 100 | < 100 | 100 to 1000 | 1000 to 10000 |
| Cn1cc(-c2ccc(-c3ccc(F)nc3)c(N3CCC(c4nncn4C)CC3)c2C#N)cn1 [Example 35, 3-(6-fluoropyridin-3-yl)-6-(1-methyl-1H-pyrazol-4-yl)-2-[4-(4-methyl-4H-1,2,4-triazol-3-yl)piperidin-1-yl]benzonitrile] | < 100 | < 100 | < 100 | < 100 |

From patent US20240101544A1, “INHIBITORS OF QPCTL AND QPCT” (priority 2022, published 2024)
